Measurements: ChEMBL document CHEMBL1134526, “Enantioselective syntheses of potent retinoid X receptor ligands: differential biological activities of individual antipodes” (J Med Chem, 2001)

What was measured:
Format in all cases: functional
[1] = system: Mus musculus; test: Hypoglycemic activity in mice at 2 mg/kg dose at day=7
[2] = system: Mus musculus; test: Hypoglycemic activity in mice at 8 mg/kg dose at day=0
[3] = system: Mus musculus; test: Hypoglycemic activity in mice at 2 mg/kg dose at day=0
[4] = system: Mus musculus; test: Hypoglycemic activity in mice at 8 mg/kg dose at day=7
[5] = system: Mus musculus; test: Hypoglycemic activity in mice at 0.4 mg/kg dose at day=7
[6] = system: Mus musculus; test: Hypoglycemic activity in mice at 0.4 mg/kg dose at day=0

SMILES | Glucose level [1] [mg/dL] | Glucose level [2] [mg/dL] | Glucose level [3] [mg/dL] | Glucose level [4] [mg/dL] | Glucose level [5] [mg/dL] | Glucose level [6] [mg/dL]
CC(/C=C/[C@H]1C[C@@]1(C)c1ccc2c(c1)C(C)(C)CCC2(C)C)=C\C(=O)O | 391 | 404 | 400 | 441 | – | –
CC(/C=C/[C@@H]1C[C@]1(C)c1ccc2c(c1)C(C)(C)CCC2(C)C)=C\C(=O)O [IRX-4204] | 221 | – | 404 | – | 291 | 406
